Experimental findings from article PMC6987092, “Characterization and diversity of the complete set of GH family 3 enzymes from Rhodothermus marinus DSM 4253” (Scientific Reports, 2020) are described below.

Holding throughout (experiment): pNP release at […] nm
Common to all, as to format: biochemical
Holding throughout (conditions): 20 mM citrate phosphate pH 5.6, 60 °C

The target in assay [1] is T1, RmXyl3A (Rhodothermus marinus, UniProt D0MHL4).
T1 construct: gene Rmar_1080; locus tag is that of the type strain DSM 4252T homolog, gene cloned from DSM 4253
T1 sequence (D0MHL4 19-792): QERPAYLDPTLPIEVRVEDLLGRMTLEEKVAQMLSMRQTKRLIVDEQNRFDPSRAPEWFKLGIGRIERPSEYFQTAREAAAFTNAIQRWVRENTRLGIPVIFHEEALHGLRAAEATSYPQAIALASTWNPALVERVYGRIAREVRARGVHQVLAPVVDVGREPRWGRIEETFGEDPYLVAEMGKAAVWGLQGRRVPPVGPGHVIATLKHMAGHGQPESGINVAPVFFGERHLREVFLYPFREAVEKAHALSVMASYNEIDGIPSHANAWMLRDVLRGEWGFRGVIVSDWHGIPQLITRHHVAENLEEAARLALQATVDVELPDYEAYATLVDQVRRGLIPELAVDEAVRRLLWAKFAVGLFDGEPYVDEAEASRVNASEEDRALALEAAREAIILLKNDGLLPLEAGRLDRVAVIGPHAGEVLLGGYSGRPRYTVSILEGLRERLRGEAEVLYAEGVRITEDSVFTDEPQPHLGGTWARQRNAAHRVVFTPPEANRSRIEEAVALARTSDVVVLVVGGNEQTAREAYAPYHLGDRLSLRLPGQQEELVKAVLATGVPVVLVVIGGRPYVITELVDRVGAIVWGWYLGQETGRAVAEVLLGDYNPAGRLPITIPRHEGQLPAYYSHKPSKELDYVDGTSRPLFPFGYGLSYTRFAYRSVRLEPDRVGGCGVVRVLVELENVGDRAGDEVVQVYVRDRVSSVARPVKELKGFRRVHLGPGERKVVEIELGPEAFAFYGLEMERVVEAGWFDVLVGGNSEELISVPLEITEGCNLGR

Assay [2] addresses T2, RmBgl3B (Rhodothermus marinus, UniProt D0MD38).
T2 construct: gene Rmar_2069; recombinant in E. coli BL21 C43 (pET-21b(+)), signal peptide removed, C-terminal His-tag; locus tag is that of the type strain DSM 4252T homolog, gene cloned from DSM 4253
T2 sequence (D0MD38 21-839): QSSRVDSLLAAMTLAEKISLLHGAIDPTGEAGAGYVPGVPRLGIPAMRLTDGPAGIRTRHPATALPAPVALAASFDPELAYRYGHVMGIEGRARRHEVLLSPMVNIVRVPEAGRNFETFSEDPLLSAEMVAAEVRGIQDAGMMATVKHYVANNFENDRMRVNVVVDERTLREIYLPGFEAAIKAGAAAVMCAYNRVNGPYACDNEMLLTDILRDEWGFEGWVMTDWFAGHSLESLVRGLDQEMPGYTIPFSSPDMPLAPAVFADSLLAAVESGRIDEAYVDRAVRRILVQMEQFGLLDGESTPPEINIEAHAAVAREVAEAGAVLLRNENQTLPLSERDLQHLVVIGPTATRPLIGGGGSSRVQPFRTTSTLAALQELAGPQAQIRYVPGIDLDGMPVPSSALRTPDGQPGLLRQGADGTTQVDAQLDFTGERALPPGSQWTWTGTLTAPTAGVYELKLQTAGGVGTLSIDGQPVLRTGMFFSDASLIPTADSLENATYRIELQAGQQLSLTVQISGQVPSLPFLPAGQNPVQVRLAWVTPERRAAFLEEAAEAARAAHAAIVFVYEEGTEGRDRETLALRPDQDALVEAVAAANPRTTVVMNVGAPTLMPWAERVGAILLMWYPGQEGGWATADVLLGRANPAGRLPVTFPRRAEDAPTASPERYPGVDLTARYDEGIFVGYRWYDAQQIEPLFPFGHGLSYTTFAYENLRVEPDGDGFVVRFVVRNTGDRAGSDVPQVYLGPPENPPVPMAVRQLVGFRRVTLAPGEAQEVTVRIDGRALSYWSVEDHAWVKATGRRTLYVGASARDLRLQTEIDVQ

The target in assay [3] is T3, RmXyl3B (Rhodothermus marinus, UniProt D0MHL5).
T3 construct: gene Rmar_1081; locus tag is that of the type strain DSM 4252T homolog, gene cloned from DSM 4253
T3 sequence (D0MHL5 entry or part of it): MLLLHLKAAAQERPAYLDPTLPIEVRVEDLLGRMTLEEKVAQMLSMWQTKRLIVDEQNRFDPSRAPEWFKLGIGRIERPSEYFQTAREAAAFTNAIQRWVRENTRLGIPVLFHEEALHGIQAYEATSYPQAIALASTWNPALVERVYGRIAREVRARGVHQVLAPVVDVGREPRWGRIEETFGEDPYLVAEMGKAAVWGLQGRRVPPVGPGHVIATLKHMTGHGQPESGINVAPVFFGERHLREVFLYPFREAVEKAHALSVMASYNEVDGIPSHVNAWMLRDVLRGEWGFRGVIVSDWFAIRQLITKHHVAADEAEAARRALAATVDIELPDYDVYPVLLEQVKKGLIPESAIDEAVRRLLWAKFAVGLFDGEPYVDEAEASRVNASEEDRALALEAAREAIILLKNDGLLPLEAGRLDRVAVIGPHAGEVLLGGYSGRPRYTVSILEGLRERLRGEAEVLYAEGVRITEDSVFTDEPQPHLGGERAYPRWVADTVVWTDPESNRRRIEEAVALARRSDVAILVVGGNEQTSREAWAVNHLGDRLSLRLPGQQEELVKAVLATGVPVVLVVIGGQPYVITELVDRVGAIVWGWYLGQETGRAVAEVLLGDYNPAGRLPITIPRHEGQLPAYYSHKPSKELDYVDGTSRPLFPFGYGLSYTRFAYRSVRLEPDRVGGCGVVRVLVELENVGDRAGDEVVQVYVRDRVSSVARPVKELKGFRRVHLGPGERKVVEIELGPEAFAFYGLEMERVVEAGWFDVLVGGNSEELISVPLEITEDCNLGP

As to pNP-α-L-Ara, the Km in assay [1] came out at 8800 ± 1000 µM; in assay [2], 1900 ± 100 µM; in assay [3], 2000 ± 200 µM.
